Test results published in publication PMC9241959 (Chemical Science, 2022).

Target: Phaseolus vulgaris erythroagglutinin (PHA-E) (Phaseolus vulgaris, UniProt P05088)
Assay: glycan microarray, fluorescence
Type: binding
Settings: labelled compound: immobilised AEAB conjugate at reducing end

Sequence of Phaseolus vulgaris erythroagglutinin (PHA-E) (P05088 22-275 limits assumed): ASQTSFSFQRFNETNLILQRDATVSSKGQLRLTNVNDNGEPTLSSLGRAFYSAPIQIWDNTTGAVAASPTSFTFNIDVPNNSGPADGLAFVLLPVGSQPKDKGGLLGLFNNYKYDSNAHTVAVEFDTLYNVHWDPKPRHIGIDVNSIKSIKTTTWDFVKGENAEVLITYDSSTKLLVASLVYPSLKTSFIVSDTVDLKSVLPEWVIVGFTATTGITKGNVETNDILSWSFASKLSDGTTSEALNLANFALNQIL

CC(=O)N[C@H]1[C@H](O[C@H]2[C@H](O)[C@@H](NC(C)=O)C(O)O[C@@H]2CO)O[C@H](CO)[C@@H](O[C@@H]2O[C@H](CO[C@H]3O[C@H](CO)[C@@H](O)[C@H](O)[C@@H]3O[C@@H]3O[C@H](CO)[C@@H](O)[C@H](O)[C@H]3NC(C)=O)[C@@H](O[C@@H]3O[C@H](CO)[C@@H](O)[C@H](O)[C@H]3NC(C)=O)[C@H](O[C@H]3O[C@H](CO)[C@@H](O)[C@H](O)[C@@H]3O[C@@H]3O[C@H](CO)[C@@H](O)[C@H](O)[C@H]3NC(C)=O)[C@@H]2O)[C@@H]1O (stereo partly shown) [compound 1, agalacto bisected N-glycan 1]
RFU at 1 ug/mL lectin: 9197 RFU
